We go through three compounds from BindingDB's records for doi:10.1016/S0960-894X(97)10088-9 (1997).

SMILES strings stand for the structures.

A short description of the assay: Compound was evaluated for inhibitory activity against Isoleucyl-tRNA synthetase.
By IC50 is commonly meant the point on the concentration scale where inhibition reaches its midpoint. Higher therefore signals a need for much substance. Take `COC(=O)CCCCCCCCOC(=O)/C=C/C[C@@H]1OC[C@H](NS(=O)(=O)c2cccc(Cl)c2)[C@@H](O)[C@H]1O` [9-{(E)-4-[(2S,3R,4R,5S)-5-(3-Chloro-benzenesulfonylamino)-3,4-dihydroxy-tetrahydro-pyran-2-yl]-but-2-enoyloxy}-nonanoic acid methyl ester]: inhibition was half-maximal at 300 nM (IC50).
`COC(=O)CCCCCCCCOC(=O)/C=C/C[C@@H]1OC[C@H](NS(=O)(=O)CCCCl)[C@@H](O)[C@H]1O` [9-{(E)-4-[(2S,3R,4R,5S)-5-(3-Chloro-propane-1-sulfonylamino)-3,4-dihydroxy-tetrahydro-pyran-2-yl]-but-2-enoyloxy}-nonanoic acid methyl ester]: half-maximal inhibition (IC50) was put at 100 nM.
Consider `CCCCS(=O)(=O)N[C@H]1CO[C@@H](C/C=C/C(=O)OCCCCCCCCC(=O)OC)[C@H](O)[C@@H]1O` [9-{(E)-4-[(2S,3R,4R,5S)-5-(Butane-1-sulfonylamino)-3,4-dihydroxy-tetrahydro-pyran-2-yl]-but-2-enoyloxy}-nonanoic acid methyl ester], for which half-maximal inhibition (IC50) required 300 nM.
